Source: patent publication US12509530B2, “Single domain antibodies directed against intracellular antigens” (Singh Molecular Medicine, LLC, priority 2015, dated 2025)
Where “and” joins values, the source holds several entries; their conditions need not be identical. Equal values may be shown once. Numbered stars: 1 amine (or outer) side, 2 acyl side, 3 side chain; on linkers, the order of the positions; unused ones are H or OH. Bridge positions count the residues as written; N and C are the ends. Square brackets hold non-standard residues; d marks the D form. Peptide text beside a SMILES is read from it. I, II: the chains in the order shown. Actinocin(9to1) = Cc1c2oc3c(C)ccc(C(=O)[*:1])c3nc-2c(C(=O)[*:2])c(N)c1=O; NMeV = CN[C@H](C(=O)O)C(C)C; Sar = CNCC(=O)O

Columns and labels:
Human recombinant TNF-α = target: T1, Human recombinant TNF-α (Homo sapiens, UniProt P01375); assay: Inhibition of TNF-α cytotoxicity in L929 cells (MTS/PMS); assay type: cell-based, mouse
T1 construct: purchased Sigma-Aldrich

STAT3 = STAT3 reporter GloResponse SIE-luc2P/HEK293 assay, IL-6 induction; assay type: cell-based, human; settings: 24 and 48 hours treatment
SJSA-1 xenograft [1] = assay: SJSA-1 bone osteosarcoma subcutaneous xenograft model; settings: SBT-100 5.0 mg/kg BIDx14, Doxorubicin 7.0 mg/kg days 1, 8, 14, IP
SJSA-1 xenograft [2] = settings: mouse, in vivo
MDA-MB-231 cells = assay: MTT proliferation assay, MDA-MB-231; assay type: cell-based, human; settings: test article cloudy; cells lost normal morphology
PANC-1 cells = assay: MTT proliferation assay, PANC-1; settings: Homo sapiens, PANC-1, 72 h
[3] = target: T2, active human TNF-α full length protein (Homo sapiens, UniProt P01375); assay: TNF-α binding ELISA; settings: for detection in coated vs non-coated wells: 0.5 μg/mL coating antigen; for detection / binding to the TNF-α protein: Experiment 1
T2 construct: active human TNF-α full length protein; purchased Abcam
Description: In this Example, the binding of anti-TNF-α sdAbs to active human TNF-α full length protein was assessed using an enzyme linked immunosorbent assay (ELISA) format. Additionally, the feasibility of utilizing a secondary antibody targeted to the his tag portion of the sdAbs was assessed.
The test articles for this study were anti-TNF-α VHH62 (SEQ ID NO:47) sdAb, TNF-α VHH66 (SEQ ID NO:45) sdAb, and anti-TNF-α VHH69 (SEQ ID NO:46) sdAb (Experiment 1).
For the assays to assess the binding of the sdAbs to TNF-α protein (Experiment 1, 4 and 5), a standard sandwich ELISA format was utilized. […] Plates were incubated overnight at 2-8° C. After the incubation, plates were washed (3×) and blocked (3% Bovine Serum Albumin (BSA) in Phosphate Buffered Saline (PBS)) for at least one hour at room temperature.
After removal of the blocking buffer and washing (3×), samples were added to the appropriate wells of the ELISA plates and incubated at room temperature with shaking (150 rpm) for at least one hour. The secondary antibody (rabbit anti-llama biotinylated antibody at either a1:5,000 or 10,000 dilution) was then added to each well and incubated with shaking for at least one hour at room temperature.
After the incubation with secondary antibody, the plates were again washed (3×) and horseradish peroxidase (HRP) at either a 1:25,000 or 1:50,000 dilution was added to each well. Plates were incubated with shaking for at least one hour at room temperature. A final wash (3×) was performed followed by the addition of TMB (Tetramethylbenzidine) substrate. After a 20 to 25 minute incubation at room temperature, stop solution was added to halt the colorimetric reaction. The absorbance at 450 nm was measured on a VersaMax instrument utilizing SoftMax Pro GxP version 5.4 software from Molecular Devices (Sunnyvale, CA).
The final experiment performed was to confirm that the results from the ELISA testing were due to binding to the TNF-α protein and not non-specific binding of the sdAb. For this determination, a comparison was made between wells coated with 0.5 μg/mL of coating antigen and non-coated wells. […] This experiment confirms that the detection seen with the previous experiments was due to the specific binding of the VHH to the coating antigen and not due to non-specific binding.

T1 sequence (P01375 77-233 limits assumed): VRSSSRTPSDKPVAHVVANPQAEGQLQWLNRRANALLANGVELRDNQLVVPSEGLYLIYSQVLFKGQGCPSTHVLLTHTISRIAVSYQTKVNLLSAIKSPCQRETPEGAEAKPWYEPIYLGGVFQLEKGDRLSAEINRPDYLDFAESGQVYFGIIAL
T2 sequence (P01375 77-233 limits assumed): as above

Cc1c2oc3c(C)ccc(C(=O)N[C@@H]4C(=O)N[C@H](C(C)C)C(=O)N5CCC[C@H]5C(=O)N(C)CC(=O)N(C)[C@@H](C(C)C)C(=O)O[C@@H]4C)c3nc-2c(C(=O)N[C@@H]2C(=O)N[C@H](C(C)C)C(=O)N3CCC[C@H]3C(=O)N(C)CC(=O)N(C)[C@@H](C(C)C)C(=O)O[C@@H]2C)c(N)c1=O [Actinomycin D] (I: T[dV]P[Sar][NMeV] / II: T[dV]P[Sar][NMeV]; ester I:1-I:C, II:1-II:C; linker I:N-II:N via Actinocin(9to1))
% Toxicity, Sample Replicate # (Human recombinant TNF-α; Assay 1 control, Actinomycin D only (no TNFα)): 5.4% and 2.3% and 3.5% and 0% (8×) | % Toxicity, Sample Replicate # (Human recombinant TNF-α; Assay 2 control, Actinomycin D only (no TNFα)): 0%

CC(=O)c1cc2c(o1)C(=O)c1ccccc1C2=O [BB1608, napabucasin, reference compound]
effect on IL-6 induction of the reporter (STAT3): Inhibition of IL-6

COc1cccc2c1C(=O)c1c(O)c3c(c(O)c1C2=O)C[C@@](O)(C(=O)CO)C[C@@H]3O[C@H]1C[C@H](N)[C@H](O)[C@H](C)O1 [Doxorubicin, reference compound]
Tumor measurement, individual animals (SJSA-1 xenograft [1]; day 8 post implant): 0.00 mm^3 | Tumor measurement, Mean Abs (SJSA-1 xenograft [1]; day 13 post implant): 70.72 mm^3 | Tumor measurement, individual animals (SJSA-1 xenograft [1]; day 23 post implant): 116.85 mm^3 | number of surviving at the end of the study (SJSA-1 xenograft [2]; Hsd: Athymic Nude-Fox1nu): 2 | Are the survival curves sig different? (SJSA-1 xenograft [2]): Yes

TNFa
% Toxicity, Sample Replicate # (Human recombinant TNF-α; Assay 1 control, TNFa 0.5 μg/mL): 101.9% and 101.6% and 101.8% (3×) and 102.1% (4×) and 102.6% and 102.7% and 101.7%

MPT His Tag: anti-STAT3 VHH13 (SBT-100) preparation produced by Microprotein Technologies, His tagged
inhibition compared with the other SBT-100 preparations (MDA-MB-231 cells): greatest inhibition

Nc1ccn([C@@H]2O[C@H](CO)[C@@H](O)C2(F)F)c(=O)n1 [Gemcitabine]
inhibition at 0.313 µM (PANC-1 cells; read-out: % Inh, Gemcitabine Hydrochloride (Biovision #1759) 0.313 μM, 72 hours): 0% | inhibition at 0.625 µM (PANC-1 cells; read-out: % Inh, Gemcitabine Hydrochloride (Biovision #1759) 0.625 μM, 72 hours): 2% | inhibition at 5 µM (PANC-1 cells; read-out: % Inh, Gemcitabine Hydrochloride (Biovision #1759) 5 μM, 72 hours): 36% | inhibition at 10 µM (PANC-1 cells; read-out: % Inh, Gemcitabine Hydrochloride (Biovision #1759) 10 μM, 72 hours): 46%

B1: anti-STAT3 VHH14: anti-STAT3 single domain antibody, SEQ ID NO:4 (same sequence as STAT3_14, SEQ ID NO: 8) (protein)
VHH: QVQLVESGGGSVQAGGSLRLSCVASTYTGCMGWFRQAPGKEREGVAALSSRGFAGHYTDSVKGRFSISRDYVKNAVYLQMNTVKPEDAAMYYCAAREGWECGETWLDRTAGGHTYWGQGTLVTVSS
modifications: Camelid
effect on IL-6 induction of the reporter (STAT3): enhancement of the IL-6 induction

B2: anti-TNF-α VHH62: anti-TNF-α sdAb, SEQ ID NO:47 (TNF_62, SEQ ID NO: 66) (protein)
VHH: QVQLVESGGGPVQAGETLRLSCTASGFTFAEADMGWYRQAPGHECELVSTITTEGITSEASSYYADSVRGRFTISRDNAKNMVYLQMNSLKPEDTAVYYCAPDPYAYSTYSDYCSWAQGTQGTLVTVSS
modifications: Camelid
detection in coated vs non-coated wells ([3]; 1 μg/mL sdAb): not detected in either coated or non-coated wells | detection / binding to the TNF-α protein ([3]; 1 μg/mL sdAb): little to no detection | OD values ([3]; Experiment 4, 10-fold serial dilutions, old and new batch): < 0.2 OD450 | OD450 Values, Non-Coated ([3]; non-coated wells (non-specific binding), 1 μg/mL sdAb): −0.001

B3: anti-TNF-α VHH69: anti-TNF-α sdAb, SEQ ID NO:46 (TNF_69, SEQ ID NO: 64) (protein)
VHH: EVQLVESGGGSVLAGGSLRLSCVASGFTSRYNYMAWFRQAPGKEREGVATIGTASGSADYYGSVKDRFTISQDNAKNTVYLQMNSLKPEDTAMYYCAARTYGTISLTPSDYRYWGQGTLVTVSS
modifications: Camelid
effect on IL-6 induction of the reporter (STAT3): enhancement of the IL-6 induction | detection in coated vs non-coated wells ([3]; 1 μg/mL sdAb): detected in coated wells but not in non-coated wells | detection / binding to the TNF-α protein ([3]; 1 μg/mL sdAb): little to no detection
